Data taken from article PMC11793105, “A kalihinol analog disrupts apicoplast function and vesicular trafficking in P. falciparum malaria” (Science (New York, N.Y.), 2024).

How the values were obtained:
[1] = tested on: P. falciparum; conditions: several P. falciparum drug-sensitive and drug-resistant strains; earlier study; read-out: IC50 (median inhibitory concentration); cited from earlier work
[2] = biological target: hPXR (human pregnane X receptor) (Homo sapiens, UniProt O75469); assay: Enhanced Cross Screen Panel (eXP): hPXR; type: in vitro ADME
hPXR (human pregnane X receptor), sequence (O75469 whole entry): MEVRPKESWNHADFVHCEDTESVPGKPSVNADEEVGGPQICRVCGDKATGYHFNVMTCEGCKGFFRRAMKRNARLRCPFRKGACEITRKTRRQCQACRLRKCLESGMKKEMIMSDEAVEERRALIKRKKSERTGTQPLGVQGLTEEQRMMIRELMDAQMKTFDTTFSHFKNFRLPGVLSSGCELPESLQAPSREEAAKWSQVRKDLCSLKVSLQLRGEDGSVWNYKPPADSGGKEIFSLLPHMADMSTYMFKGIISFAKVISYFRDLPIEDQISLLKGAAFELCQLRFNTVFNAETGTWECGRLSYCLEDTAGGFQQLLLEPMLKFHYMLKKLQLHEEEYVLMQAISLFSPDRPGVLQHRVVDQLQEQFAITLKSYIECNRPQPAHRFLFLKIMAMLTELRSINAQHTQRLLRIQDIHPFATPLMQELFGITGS

[3] = tested on: P. knowlesi YH1 rhesus erythrocyte infecting parasites; assay: P. knowlesi in vitro IC50 assay (flow cytometry), rhesus erythrocytes; type: cell-based; conditions: Plasmodium knowlesi, in Macaca mulatta
Method: Fig. 5. In vivo and broad-spectrum antimalarial efficacy of MED6-189. (A) The in vivo efficacy of MED6-189 was evaluated in a humanized mouse model infected with P. falciparum (blue) compared with untreated controls (black). […] The graphs illustrate the logarithmic growth of parasites (y axis) in response to varying drug concentrations (x axis). Error bars represent standard deviations from two independent experiments conducted in triplicate. The regression line is derived from a nonlinear regression analysis (variable slope with four parameters, least squares fit). (C) Proposed mode of action of MED6-189 in P. falciparum–infected erythrocytes. […]
Detailed information on materials and methods is available in the supplementary materials. […] P. knowlesi assays were quantitatively measured by flow cytometry using SYBR Green I and Mitrotracker Deep Red, as previously described ([84], [85]), on a Beckman Coulter CytoFLEX. […]
P. falciparum in vitro SYBR green fluorescence-based assays The anti-malarial activity of individual analogues were evaluated in-vitro against P. falciparum 3D7 (MRA-102, drug […]
green-I based fluorescence assay. Parasite growth rate and stages of development were determined via microscopy through Giemsa-stained smears of the cultures. […]

For `[C-]#[N+][C@]1(C)CC[C@H]2[C@@H]([C@@H](C(C)C)CC[C@]2(C)[N+]#[C-])[C@H]1O` [MED6-189], the IC50 [1] is given as < 50 nM, the IC50 [2] is given as 7400 nM and the IC50 [3] is given as 276 ± 22 nM.
